Laboratory results: US9034921B2, “Diphenylmethane derivatives as SGLT2 inhibitors” (GREEN CROSS CORPORATION, priority 2011, dated 2015)

These molecules were tested against human SGLT2 (Homo sapiens (Human), UniProt P31639) (assay: Inhibitory effects on human SGLT2 activities (14C-AMG uptake, sodium-dependent glucose transport assay)). Conditions: CHO cells stably expressing hSGLT2, 37° C., 2 h, single determinations.
Assay type: cell-based
How it was run: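 CHO cells stably expressing hSGLT2 were preincubated 10 min at 37 °C in choline (Na+-free) buffer, then exposed 2 h at 37 °C to compound in Na+ uptake buffer with 8 μM 14C-AMG and 1 mM unlabeled AMG. Radioactivity was scintillation counted; IC50 came from nonlinear regression.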

human SGLT2, sequence (P31639 whole entry): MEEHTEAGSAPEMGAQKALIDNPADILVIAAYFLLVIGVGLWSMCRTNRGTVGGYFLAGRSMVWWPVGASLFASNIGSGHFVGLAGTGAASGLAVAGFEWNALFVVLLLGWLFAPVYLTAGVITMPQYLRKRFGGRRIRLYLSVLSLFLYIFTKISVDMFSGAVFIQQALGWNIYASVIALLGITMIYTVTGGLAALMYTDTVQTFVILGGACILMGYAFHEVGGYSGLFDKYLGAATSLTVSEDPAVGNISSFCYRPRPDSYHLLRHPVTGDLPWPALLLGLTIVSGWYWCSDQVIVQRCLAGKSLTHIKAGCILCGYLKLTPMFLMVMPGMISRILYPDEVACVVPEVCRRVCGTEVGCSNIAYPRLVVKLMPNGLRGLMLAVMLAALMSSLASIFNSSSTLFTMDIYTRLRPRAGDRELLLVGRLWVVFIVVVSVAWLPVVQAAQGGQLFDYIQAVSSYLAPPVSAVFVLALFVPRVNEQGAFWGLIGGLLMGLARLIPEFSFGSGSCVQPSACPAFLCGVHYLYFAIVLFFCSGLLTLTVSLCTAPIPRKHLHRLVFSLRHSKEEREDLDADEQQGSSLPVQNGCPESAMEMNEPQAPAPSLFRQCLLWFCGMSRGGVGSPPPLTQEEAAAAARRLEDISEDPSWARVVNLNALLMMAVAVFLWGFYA

Row | SMILES | IC50
1 | OC[C@H]1O[C@@H](c2cc(Cc3ccc(C4CC4)cc3)c(Cl)c3c2OCCC3)[C@H](O)[C@@H](O)[C@@H]1O [Example E121, (2S,3R,4R,5S,6R)-2-(5-Chloro-6-(4-cyclopropylbenzyl)chroman-8-yl)-6-(hydroxymethyl)tetrahydro-2H-pyran-3,4,5-triol] | 0.851 nM
2 | CCOc1ccc(Cc2cc([C@@H]3O[C@H](C(C)O)[C@@H](O)[C@H](O)[C@H]3O)c3c(c2Cl)OCC3)cc1 (stereo partly drawn) [Example E127, (2S,3R,4R,5S,6R)-2-(7-Chloro-6-(4-ethoxybenzyl)-2,3-dihydrobenzofuran-4-yl)-6-(1-hydroxyethyl)tetrahydro-2H-pyran-3,4,5-triol] | 1.35 nM
3 | CC(C)n1cc2cc(Cc3cc([C@@H]4O[C@H](CO)[C@@H](O)[C@H](O)[C@H]4O)ccc3Cl)ccc2n1 [Example E040, (2S,3R,4R,5S,6R)-2-(4-Chloro-3-((2-isopropyl-2H-indazol-5-yl)methyl)phenyl)-6-(hydroxymethyl)tetrahydro-2H-pyran-3,4,5-triol] | 4.44 nM
4 | CCOc1ccc(Cc2cc([C@@H]3O[C@H](CO)[C@@H](O)[C@H](O)[C@H]3O)c3c(c2Cl)OCCO3)cc1 [Example E013, (2S,3R,4R,5S,6R)-2-(8-Chloro-7-(4-ethoxybenzyl)-2,3-dihydrobenzo[b][1,4]dioxin-5-yl)-6-(hydroxymethyl)tetrahydro-2H-pyran-3,4,5-triol] | 1.27 nM
5 | CCn1cc2cc(Cc3cc([C@@H]4O[C@H](CO)[C@@H](O)[C@H](O)[C@H]4O)ccc3Cl)ccc2n1 [Example E038, (2S,3R,4R,5S,6R)-2-(4-Chloro-3-((2-ethyl-2H-indazol-5-yl)methyl)phenyl)-6-(hydroxymethyl)tetrahydro-2H-pyran-3,4,5-triol] | 1.76 nM
6 | CCOc1ccc(Cc2cc([C@@H]3O[C@H](CO)[C@@H](O)[C@H](O)[C@H]3O)c3c(c2Cl)OC(C)C3)cc1 (stereo partly drawn) [Example E135, (2S,3R,4R,5S,6R)-2-(7-Chloro-6-(4-ethoxybenzyl)-2-methyl-2,3-dihydrobenzofuran-4-yl)-6-(hydroxymethyl)tetrahydro-2H-pyran-3,4,5-triol] | 1.65 nM
7 | CCOc1ccc(Cc2cc([C@@H]3O[C@H](CO)[C@@H](O)[C@H](O)[C@H]3O)cc(-c3cccc(C#N)c3)c2C)cc1 [Example E087, 3′-(4-Ethoxybenzyl)-2′-methyl-5′-((2S,3R,4R,5S,6R)-3,4,5-trihydroxy-6-(hydroxymethyl)-tetrahydro-2H-pyran-2-yl)biphenyl-3-carbonitrile] | 38.9 nM
8 | C=Cc1ccc(Cc2cc([C@@H]3O[C@H](CO)[C@@H](O)[C@H](O)[C@H]3O)c3c(c2Cl)CCC3)cc1 [Example E117, (2S,3R,4R,5S,6R)-2-(7-Chloro-6-(4-vinylbenzyl)-2,3-dihydro-1H-inden-4-yl)-6-(hydroxymethyl)tetrahydro-2H-pyran-3,4,5-triol] | 0.742 nM
9 | OC[C@H]1O[C@@H](c2cc(Cc3ccc4c(c3)OCCO4)c(Cl)c3c2CCO3)[C@H](O)[C@@H](O)[C@@H]1O [Example E045, (2S,3R,4R,5S,6R)-2-(7-Chloro-6-((2,3-dihydrobenzo[b][1,4]dioxin-6-yl)methyl)-2,3-dihydrobenzofuran-4-yl)-6-(hydroxymethyl)tetrahydro-2H-pyran-3,4,5-triol] | 1.37 nM
10 | COc1ccc(Cc2cc([C@@H]3O[C@H](CO)[C@@H](O)[C@H](O)[C@H]3O)c3c(c2Cl)OCC3)cc1 [Example E019, (2S,3R,4R,5S,6R)-2-(7-Chloro-6-(4-methoxybenzyl)-2,3-dihydrobenzofuran-4-yl)-6-(hydroxymethyl)tetrahydro-2H-pyran-3,4,5-triol] | 1.53 nM
11 | COc1ccc(Cc2cc([C@@H]3O[C@H](OC)[C@@H](O)[C@H](O)[C@H]3O)c3c(c2Br)CCC3)cc1 [Example E097, (2S,3R,4R,5S,6S)-2-(7-Bromo-6-(4-methoxybenzyl)-2,3-dihydro-1H-inden-4-yl)-6-methoxy-tetrahydro-2H-pyran-3,4,5-triol] | 3.83 nM
12 | COc1ccc(Cc2cc([C@@H]3O[C@H](CO)[C@@H](O)[C@H](O)[C@H]3O)c3c(c2Cl)OCCO3)cc1 [Example E104, (2S,3R,4R,5S,6R)-2-(8-Chloro-7-(4-methoxybenzyl)-2,3-dihydrobenzo[b][1,4]dioxin-5-yl)-6-(hydroxymethyl)tetrahydro-2H-pyran-3,4,5-triol] | 2 nM

More lines, now with the values ahead:

Row | IC50 | SMILES
13 | 1.03 nM | CCOc1ccc(Cc2cc([C@@H]3O[C@H](CO)[C@@H](O)[C@H](O)[C@H]3O)c3c(c2Cl)CC(C)S3)cc1 (stereo partly drawn) [Example E143, (2S,3R,4R,5S,6R)-2-(4-Chloro-5-(4-ethoxybenzyl)-2-methyl-2,3-dihydrobenzo[b]thiophen-7-yl)-6-(hydroxymethyl)tetrahydro-2H-pyran-3,4,5-triol]
14 | 4.22 nM | OC[C@H]1O[C@@H](c2cc(Cc3ccccc3)c(Cl)c3c2CCO3)[C@H](O)[C@@H](O)[C@@H]1O [Example E166, (2S,3R,4R,5S,6R)-2-(6-Benzyl-7-chloro-2,3-dihydrobenzofuran-4-yl)-6-(hydroxymethyl)tetrahydro-2H-pyran-3,4,5-triol]
15 | 0.91 nM | CC(F)(F)c1ccc(Cc2cc([C@@H]3O[C@H](CO)[C@@H](O)[C@H](O)[C@H]3O)c3c(c2Cl)OCC3)cc1 [Example E177, (2S,3R,4R,5S,6R)-2-(7-Chloro-6-(4-(1,1-difluoroethyl)benzyl)-2,3-dihydrobenzofuran-4-yl)-6-(hydroxymethyl)tetrahydro-2H-pyran-3,4,5-triol]
16 | 0.552 nM | COc1ccc(Cc2cc([C@@H]3O[C@H](CO)[C@@H](O)[C@H](O)[C@H]3O)c3c(c2Cl)SCCC3)cc1 [Example E242, (2S,3R,4R,5S,6R)-2-(8-Chloro-7-(4-methoxybenzyl)thiochroman-5-yl)-6-(hydroxymethyl)tetrahydro-2H-pyran-3,4,5-triol]
17 | 1 nM | C=Cc1ccc(Cc2cc([C@@H]3O[C@H](CO)[C@@H](O)[C@H](O)[C@H]3O)c3c(c2Cl)OC(C)C3)cc1 (stereo partly drawn) [Example E137, (2S,3R,4R,5S,6R)-2-(7-Chloro-2-methyl-6-(4-vinylbenzyl)-2,3-dihydrobenzofuran-4-yl)-6-(hydroxymethyl)tetrahydro-2H-pyran-3,4,5-triol]
18 | 0.734 nM | COc1ccc(Cc2cc([C@@H]3O[C@H](CO)[C@@H](O)[C@H](O)[C@H]3O)c3c(c2C(F)F)CCC3)cc1 [Example E237, (2S,3R,4R,5S,6R)-2-(7-(Difluoromethyl)-6-(4-methoxybenzyl)-2,3-dihydro-1H-inden-4-yl)-6-(hydroxymethyl)tetrahydro-2H-pyran-3,4,5-triol]
19 | 0.404 nM | CCc1ccc(Cc2cc([C@@H]3O[C@H](CO)[C@@H](O)[C@H](O)[C@H]3O)c3c(c2Cl)OCO3)cc1 [Example E162, (2S,3R,4R,5S,6R)-2-(7-Chloro-6-(4-ethylbenzyl)benzo[d][1,3]dioxol-4-yl)-6-(hydroxymethyl)tetrahydro-2H-pyran-3,4,5-triol]
20 | 2.02 nM | OC[C@H]1O[C@@H](c2cc(Cc3ccc(OCCOC4CC4)cc3)c(Cl)c3c2CCO3)[C@H](O)[C@@H](O)[C@@H]1O [Example E198, (2S,3R,4R,5S,6R)-2-(7-Chloro-6-(4-(2-cyclopropoxyethoxy)benzyl)-2,3-dihydrobenzofuran-4-yl)-6-(hydroxymethyl)tetrahydro-2H-pyran-3,4,5-triol]
